In the supplement of paper PMC11061612:

What was measured:
Test in all cases: combination Emax (second highest fraction inhibited in the dose matrix, 72 h); higher = more inhibition; extreme values may be limits of the assay
D-392MG (Glioblastoma) = tested on: D-392MG (Glioblastoma)
Summary of the method: (§1)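 Cell lines grown in DMEM/F12 or RPMI with 10% FBS were plated in 1536-well plates and held 24 hours at 37°C, 5% CO2 before 72 hours of exposure to two-drug dose matrices, with DMSO typically at 0.2%. CellTiter-Glo 2.0 luminescence gave viability, which was converted to inhibition. Vehicle wells were set to 0 and blank wells to 1. Combination Emax is the second-highest inhibition in the matrix, and Bliss excess is the observed combination effect minus the expected EA + EB − EA·EB, where EA and EB are the single-agent effects.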

[1] = tested on: DOK (Oral Cavity Carcinoma)
Summary of the method: as §1

[2] = tested on: HCC1143 (Breast Carcinoma)
Summary of the method: as §1

HCC38 (Breast Carcinoma) = tested on: HCC38 (Breast Carcinoma)
Summary of the method: as §1

[3] = tested on: HCT-116 (Colorectal Carcinoma)
Summary of the method: as §1

[4] = tested on: MEG-01 (Chronic Myelogenous Leukemia)
Summary of the method: as §1

[5] = tested on: NOMO-1 (Acute Myeloid Leukemia)
Summary of the method: as §1

[6] = tested on: P31-FUJ (Acute Myeloid Leukemia)
Summary of the method: as §1

[7] = tested on: PA-TU-8902 (Pancreatic Carcinoma)
Summary of the method: as §1

[8] = tested on: SK-LMS-1 (Other Solid Carcinomas)
Summary of the method: as §1

[9] = tested on: SK-UT-1 (Other Solid Carcinomas)
Summary of the method: as §1

[10] = tested on: SKN-3 (Head and Neck Carcinoma)
Summary of the method: as §1

[11] = tested on: SNG-M (Endometrial Carcinoma)
Summary of the method: as §1

[12] = tested on: SW948 (Colorectal Carcinoma)
Summary of the method: as §1

[13] = tested on: WSU-DLCL2 (B-Cell Non-Hodgkin's Lymphoma)
Summary of the method: as §1

[14] = tested on: EFM-192A (Breast Carcinoma)
Summary of the method: as §1

[15] = tested on: HCC-827 (Lung Adenocarcinoma)
Summary of the method: as §1

[16] = tested on: JHH-6 (Hepatocellular Carcinoma)
Summary of the method: as §1

[17] = tested on: MES-SA (Other Solid Carcinomas)
Summary of the method: as §1

[18] = tested on: RCC10RGB (Kidney Carcinoma)
Summary of the method: as §1

Row | Compound | combination Emax (D-392MG (Glioblastoma)) | combination Emax [1] | combination Emax [2] | combination Emax (HCC38 (Breast Carcinoma)) | combination Emax [3] | combination Emax [4] | combination Emax [5] | combination Emax [6] | combination Emax [7] | combination Emax [8] | combination Emax [9] | combination Emax [10] | combination Emax [11] | combination Emax [12] | combination Emax [13] | combination Emax [14] | combination Emax [15] | combination Emax [16] | combination Emax [17] | combination Emax [18]
1 | CS(=O)(=O)CCNCc1ccc(-c2ccc3ncnc(Nc4ccc(OCc5cccc(F)c5)c(Cl)c4)c3c2)o1 [Lapatinib] + NC1(c2ccc(-c3nc4ccn5c(=O)[nH]nc5c4cc3-c3ccccc3)cc2)CCC1 [MK-2206] (first compound max 10 µM, 7x7, partner max 10 µM) | 0.189 | 0.935 | 0.89 | 0.503 | 0.891 | 0.904 | 0.778 | 0.947 | 0.72 | 0.927 | 0.636 | 0.835 | 0.667 | 0.655 | 0.99 |  |  |  |  | 
2 | CN(C)CCCOc1ccc(-c2ccc3ncc4c(c3c2)n(C2CCOCC2)c(=O)n4C)cn1 [AZD0156] + C=CCn1c(=O)c2cnc(Nc3ccc(N4CCN(C)CC4)cc3)nc2n1-c1cccc(C(C)(C)O)n1 [AZD1775] (first compound max 1 µM, partner max 1 µM) | 0.18 | 0.375 | 0.6 | 0.505 | 0.494 | 0.883 | 0.96 | 0.912 | 0.252 | 0.439 | 0.635 | 0.139 | 0.58 |  | 0.944 | 0.353 | 0.456 | 0.148 | 0.768 | 0.464
3 | CN(C)CCCOc1ccc(-c2ccc3ncc4c(c3c2)n(C2CCOCC2)c(=O)n4C)cn1 [AZD0156] + C[C@@H]1COCCN1C2=NC(=NC(=C2)C3(CC3)[S@](=N)(=O)C)C4=C5C=CNC5=NC=C4 [AZD6738] (first compound max 1 µM, 7x7, partner max 10 µM) | 0.374 | 0.264 | 0.871 | 0.558 | 0.665 | 0.912 | 0.94 | 0.912 | 0.41 | 0.525 | 0.806 | 0.414 | 0.964 |  | 0.977 | 0.245 | 0.495 | 0.337 | 0.807 | 0.403
4 | CCN(CCO)CCCOc1ccc2c(Nc3cc(CC(=O)Nc4cccc(F)c4)[nH]n3)ncnc2c1 [AZD2811] + C[C@@H]1COCCN1C2=NC(=NC(=C2)C3(CC3)[S@](=N)(=O)C)C4=C5C=CNC5=NC=C4 [AZD6738] (first compound max 1 µM, 7x7, partner max 10 µM) | 0.392 | 0.44 | 0.824 | 0.568 | 0.562 | 0.912 | 0.922 | 0.942 | 0.216 | 0.551 | 0.816 | 0.222 | 0.932 |  | 0.822 | 0.233 | 0.493 | 0.266 | 0.654 | 0.384
5 | C=CCn1c(=O)c2cnc(Nc3ccc(N4CCN(C)CC4)cc3)nc2n1-c1cccc(C(C)(C)O)n1 [AZD1775] + C[C@@H]1COCCN1C2=NC(=NC(=C2)C3(CC3)[S@](=N)(=O)C)C4=C5C=CNC5=NC=C4 [AZD6738] (first compound max 1 µM, partner max 10 µM) | 0.483 | 0.545 | 0.906 | 0.712 | 0.757 | 0.935 | 0.978 | 0.952 | 0.49 | 0.704 | 0.906 | 0.648 | 0.947 |  | 1 | 0.39 | 0.609 | 0.553 | 0.852 | 0.538
6 | Cc1cc2ncnn2cc1Nc1ncc2c(n1)n(C1CCOCC1)c(=O)n2C [AZD7648] + O=C(c1cc(Cc2n[nH]c(=O)c3ccccc23)ccc1F)N1CCN(C(=O)C2CC2)CC1 [Olaparib] (first compound max 10 µM, 7x7, partner max 10 µM) | 0.144 | 0.152 | 0.148 | 0.07 | 0.234 | 0.22 | 0.365 | 0.34 | 0.112 | 0.281 | 0.158 | 0.0538 | 0.143 |  | 0.307 | 0.278 | 0.199 | 0.158 | 0.637 | 0.18
7 | C[C@@H]1COCCN1c1cc(C2([S@](C)(=N)=O)CC2)nc(-c2ccnc3[nH]ccc23)n1 [AZD6738] + O=C(c1cc(Cc2n[nH]c(=O)c3ccccc23)ccc1F)N1CCN(C(=O)C2CC2)CC1 [Olaparib] (first compound max 10 µM, 7x7, partner max 10 µM) | 0.38 | 0.369 | 0.701 | 0.611 | 0.78 | 0.908 | 0.908 | 0.877 | 0.195 | 0.529 | 0.821 | 0.391 | 0.898 |  | 0.92 | 0.32 | 0.498 | 0.263 | 0.643 | 0.441
8 | CCN(CCO)CCCOc1ccc2c(Nc3cc(CC(=O)Nc4cccc(F)c4)[nH]n3)ncnc2c1 [AZD2811] + C=CCn1c(=O)c2cnc(Nc3ccc(N4CCN(C)CC4)cc3)nc2n1-c1cccc(C(C)(C)O)n1 [AZD1775] (first compound max 1 µM, partner max 1 µM) | 0.168 | 0.463 | 0.623 | 0.489 | 0.547 | 0.863 | 0.932 | 0.917 | 0.222 | 0.436 | 0.765 | 0.148 | 0.482 |  | 0.937 | 0.239 | 0.392 | 0.223 | 0.767 | 0.518
9 | Cc1nc(-c2cn3c(n2)-c2ccc(-c4cnn(C(C)(C)C(N)=O)c4)cc2OCC3)n(C(C)C)n1 [Taselisib] + O=C(Nc1ccc2[nH]nc(-c3ccncc3)c2c1)[C@@H]1CCN(CC(=O)N2CCN(c3ccc(-c4ncccn4)cc3)CC2)C1 [SCH772984] (first compound max 10 µM, 7x7, partner max 5 µM) | 0.799 | 1 |  | 0.355 | 1 | 0.954 | 0.932 | 0.948 |  | 0.924 | 0.485 |  | 0.76 | 0.964 | 0.961 |  |  |  |  | 
10 | CCN(CCO)CCCOc1ccc2c(Nc3cc(CC(=O)Nc4cccc(F)c4)[nH]n3)ncnc2c1 [AZD2811] + O=C(c1cc(Cc2n[nH]c(=O)c3ccccc23)ccc1F)N1CCN(C(=O)C2CC2)CC1 [Olaparib] (first compound max 1 µM, 7x7, partner max 10 µM) | 0.174 | 0.375 | 0.372 | 0.287 | 0.452 | 0.564 | 0.396 | 0.83 | 0.187 | 0.367 | 0.289 | 0.0796 | 0.25 |  | 0.273 | 0.212 | 0.236 | 0.241 | 0.519 | 0.211
11 | CCc1c2c(nc3ccc(O)cc13)-c1cc3c(c(=O)n1C2)COC(=O)[C@]3(O)CC [SN-38] + O=C(c1cc(Cc2n[nH]c(=O)c3ccccc23)ccc1F)N1CCN(C(=O)C2CC2)CC1 [Olaparib] (first compound max 0.3 µM, 7x7, partner max 10 µM) | 0.435 | 0.587 |  | 0.682 | 0.9 | 0.755 | 0.968 | 0.987 | 0.428 | 0.889 | 0.973 |  | 0.62 | 0.647 | 1 |  | 0.497 | 0.42 |  | 
12 | CS(=O)(=O)CCNCc1ccc(-c2ccc3ncnc(Nc4ccc(OCc5cccc(F)c5)c(Cl)c4)c3c2)o1 [Lapatinib] + Cn1cnc2c(F)c(Nc3ccc(Br)cc3Cl)c(C(=O)NOCCO)cc21 [Selumetinib] (first compound max 10 µM, 7x7, partner max 10 µM) | 0.396 | 0.933 |  | 0.214 | 0.775 | 0.644 | 0.661 | 0.521 |  | 0.402 | 0.501 |  | 0.43 | 0.774 | 0.472 |  |  |  |  | 
13 | CN(C)CCCOc1ccc(-c2ccc3ncc4c(c3c2)n(C2CCOCC2)c(=O)n4C)cn1 [AZD0156] + CCN(CCO)CCCOc1ccc2c(Nc3cc(CC(=O)Nc4cccc(F)c4)[nH]n3)ncnc2c1 [AZD2811] (first compound max 1 µM, 7x7, partner max 1 µM) | 0.0413 | 0.334 | 0.302 | 0.181 | 0.287 | 0.329 | 0.501 | 0.882 | 0.0699 | 0.278 | 0.264 | 0.0518 | 0.0754 |  | 0.359 | 0.269 | 0.143 | 0.241 | 0.711 | 0.143
14 | C=CCn1c(=O)c2cnc(Nc3ccc(N4CCN(C)CC4)cc3)nc2n1-c1cccc(C(C)(C)O)n1 [AZD1775] + O=C(c1cc(Cc2n[nH]c(=O)c3ccccc23)ccc1F)N1CCN(C(=O)C2CC2)CC1 [Olaparib] (first compound max 1 µM, partner max 10 µM) | 0.235 | 0.457 | 0.593 | 0.579 | 0.635 | 0.845 | 0.917 | 0.868 | 0.289 | 0.563 | 0.625 | 0.171 | 0.668 |  | 0.992 | 0.293 | 0.368 | 0.223 | 0.696 | 0.52
